The values below come from US10703764B2, “Benzopiperazine compositions as BET bromodomain inhibitors” (FORMA Therapeutics, Inc., priority 2013, dated 2020).

In one assay the target is T1, BRD4 BD1 (Homo sapiens, UniProt O60885).
T1 construct: made in house
As to the kind of experiment: AlphaScreen binding assay, BRD4 Bromodomain 1. In a few lines: (§1)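 Compound dilution series were mixed with His-tagged BRD4 bromodomain and biotinylated tetra-acetylated H4 (1-21) peptide at pH 7.3 (BD1 and peptide at 50 nM, BD2 and peptide at 100 nM). Donor and acceptor beads were then added, and plates were equilibrated at least 1 h before reading. IC50 values were fitted with a four-parameter logistic model.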
A general note: In Alpha technology, singlet oxygen from a donor bead excites a nearby acceptor bead.

Another assay concerns MV4-11 cells. As to the kind of experiment: Oncology cell growth assay (3-day proliferation, CellTiter-Glo). Format: cell-based. The conditions noted are these: Homo sapiens, AML cell line MV4-11, 72 hours, compounds grouped by IC50 range, read-out: MV4-11 IC50 (inhibition of proliferation, gIC50). The procedure, abridged: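 A 3-day proliferation test used MV4-11 cells seeded at 3000 per well with eight compound concentrations (10 μM top, 3-fold dilution) at 37° C in 5% CO2. CellTiter-Glo luminescence defined viable cell signal. A four-parameter logistic curve against DMSO and background wells gave the gIC50.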
In general terms: In ATP-based viability assays light output follows the ATP content of the culture.

The next assay addresses T2, BRD4 BD2 (Homo sapiens, UniProt O60885).
T2 construct: made in house
As to the kind of experiment: AlphaScreen binding assay, BRD4 Bromodomain 2. In a few lines: as §1

Each structure is given as a SMILES string. Read-outs that look alike come from different tables or passages of the source.

Turning to `CC(=O)N1c2ccc(-c3cnn(C4CC4)c3)cc2N(c2nn(C)c3cccnc23)C[C@@H]1C` [Example I-187, 1-[(2S)-6-(1-cyclopropyl-1H-pyrazol-4-yl)-2-methyl-4-{1-methyl-1H-pyrazolo[4,3-b]pyridin-3-yl}-1,2,3,4-tetrahydroquinoxalin-1-yl]ethan-1-one], the IC50 at BRD4 BD1 was 1000 to 10000 nM; in the assay on MV4-11 cells (MV4-11, 72 h) it was greater than 500 nM; on BRD4 BD2 it was 50 to 500 nM.
As for `CC(=O)N1c2ccc(-c3cnn(CCO)c3)cc2N(c2nn(C)c3cc(F)ccc23)C[C@@H]1C` [Example I-188, 1-[(2S)-4-(6-fluoro-1-methyl-1H-indazol-3-yl)-6-[1-(2-hydroxyethyl)-1H-pyrazol-4-yl]-2-methyl-1,2,3,4-tetrahydroquinoxalin-1-yl]ethan-1-one], the IC50 on BRD4 BD1 is 100 to 1000 nM; in the assay on MV4-11 cells (MV4-11, 72 h), 100 to 500 nM; on BRD4 BD2 it was less than 50 nM.
Turning to `CC(=O)N1c2ccc(-c3cnn(CCO)c3)cc2N(c2nn(C)c3ccc(F)cc23)C[C@@H]1C` [Example I-189, 1-[(2S)-4-(5-fluoro-1-methyl-1H-indazol-3-yl)-6-[1-(2-hydroxyethyl)-1H-pyrazol-4-yl]-2-methyl-1,2,3,4-tetrahydroquinoxalin-1-yl]ethan-1-one], the IC50 lay within 1000 to 10000 nM at BRD4 BD1; 100 to 500 nM in the assay with MV4-11 cells (MV4-11, 72 h); 50 to 500 nM at BRD4 BD2.
For `CC(=O)N1c2ccc(-c3cnn(CCO)c3)cc2N(c2nn(C)c3cccc(F)c23)C[C@@H]1C` [Example I-190, 1-[(2S)-4-(4-fluoro-1-methyl-1H-indazol-3-yl)-6-[1-(2-hydroxyethyl)-1H-pyrazol-4-yl]-2-methyl-1,2,3,4-tetrahydroquinoxalin-1-yl]ethan-1-one], the IC50 was 100 to 1000 nM on BRD4 BD1; 100 to 500 nM with MV4-11 cells (MV4-11, 72 h); less than 50 nM on BRD4 BD2.
Consider `CC(=O)N1c2ccc(-c3cnn(C4CCNCC4)c3)cc2N(C(=O)Oc2ccc(F)cc2F)C[C@@H]1C` [Example I-191, 2,4-difluorophenyl (S)-4-acetyl-3-methyl-7-(1-(piperidin-4-yl)-1H-pyrazol-4-yl)-3,4-dihydroquinoxaline-1(2H)-carboxylate], for which the values for the IC50 at BRD4 BD1, in the assay on MV4-11 cells and on BRD4 BD2 were 100 to 1000 nM, 100 to 500 nM and less than 50 nM, respectively.
For `CNC(=O)N1c2ncc(-c3cnn(C4CC4)c3)cc2N(C(=O)OC(C)C)C[C@@H]1C` [Example I-194, (S)-isopropyl 7-(1-cyclopropyl-1H-pyrazol-4-yl)-3-methyl-4-(methylcarbamoyl)-3,4-dihydropyrido[2,3-b]pyrazine-1(2H)-carboxylate] the same measures were 1000 to 10000 nM, greater than 500 nM and 50 to 500 nM.
Take `CC(=O)N1c2cc([N+](=O)[O-])c(-c3cnn(C4CC4)c3)cc2N(C(=O)OC(C)C)C[C@@H]1C` [Example I-195, isopropyl (S)-4-acetyl-7-(1-cyclopropyl-1H-pyrazol-4-yl)-3-methyl-6-nitro-3,4-dihydroquinoxaline-1(2H)-carboxylate]: the IC50 at BRD4 BD1 was 100 to 1000 nM; with MV4-11 cells (MV4-11, 72 h) it was greater than 500 nM; at BRD4 BD2 it was greater than 500 nM.
On to `CC(=O)N1c2cc(F)c(-c3ccc(S(C)(=O)=O)cc3)cc2N(C(=O)OC(C)C)C[C@@H]1C` [Example I-196, Isopropyl (S)-4-acetyl-6-fluoro-3-methyl-7-(4-(methylsulfonyl)phenyl)-3,4-dihydroquinoxaline-1(2H)-carboxylate], for which the IC50 on BRD4 BD1 was 1000 to 10000 nM; in the assay on MV4-11 cells (MV4-11, 72 h), greater than 500 nM; at BRD4 BD2 it was greater than 500 nM.
Turning to `CC(=O)Nc1cc2c(cc1-c1ccc(S(C)(=O)=O)cc1)N(C(=O)OC(C)C)C[C@H](C)N2C(C)=O` [Example I-197, Isopropyl (S)-6-acetamido-4-acetyl-3-methyl-7-(4-(methylsulfonyl)phenyl)-3,4-dihydroquinoxaline-1(2H)-carboxylate], the IC50 was 1000 to 10000 nM at BRD4 BD1; greater than 500 nM in the assay on MV4-11 cells (MV4-11, 72 h); greater than 500 nM on BRD4 BD2.
For the compound `COC(=O)Nc1cc2c(cc1-c1ccc(S(C)(=O)=O)cc1)N(C(=O)OC(C)C)C[C@H](C)N2C(C)=O` [Example I-198, Isopropyl (S)-4-acetyl-6-((methoxycarbonyl)amino)-3-methyl-7-(4-(methylsulfonyl)phenyl)-3,4-dihydroquinoxaline-1 (2H)-carboxylate], the IC50 was 1000 to 10000 nM on BRD4 BD1; greater than 500 nM in the assay on MV4-11 cells (MV4-11, 72 h); greater than 500 nM on BRD4 BD2.
For `COc1cc2c(cc1-c1ccc(S(C)(=O)=O)cc1)N(C(=O)OC(C)C)C[C@H](C)N2C(C)=O` [Example I-199, Isopropyl (S)-4-acetyl-6-methoxy-3-methyl-7-(4-(methylsulfonyl)phenyl)-3,4-dihydroquinoxaline-1(2H)-carboxylate], the IC50 is 1000 to 10000 nM at BRD4 BD1; greater than 500 nM with MV4-11 cells (MV4-11, 72 h); greater than 500 nM on BRD4 BD2.
As to `CC(=O)Nc1ccc2c(c1)N(C(C)=O)[C@@H](C)CN2C(=O)OC(C)C` [Example I-200, Isopropyl (S)-6-acetamido-4-acetyl-3-methyl-3,4-dihydroquinoxaline-1(2H)-carboxylate], the IC50 on BRD4 BD1 was 1000 to 10000 nM; with MV4-11 cells (MV4-11, 72 h), greater than 500 nM; on BRD4 BD2, 50 to 500 nM.
For `CC(=O)N1c2cc(NS(C)(=O)=O)ccc2N(C(=O)OC(C)C)C[C@@H]1C` [Example I-201, Isopropyl (S)-4-acetyl-3-methyl-6-(methylsulfonamido)-3,4-dihydro quinoxaline-1(2H)-carboxylate] the same measures were greater than 10000 nM, greater than 500 nM and greater than 500 nM.
Taken in the same sequence, the figures for `COC(=O)Nc1ccc2c(c1)N(C(C)=O)[C@@H](C)CN2C(=O)OC(C)C` [Example I-202, Isopropyl (S)-4-acetyl-6-((methoxycarbonyl)amino)-3-methyl-3,4-dihydro quinoxaline-1(2H)-carboxylate] were greater than 10000 nM, greater than 500 nM and greater than 500 nM.
As to `CC(=O)Nc1cc2c(cc1Br)N(C(=O)OC(C)C)C[C@H](C)N2C(C)=O` [Example I-203, Isopropyl (S)-6-acetamido-4-acetyl-7-bromo-3-methyl-3,4-dihydro quinoxaline-1(2H)-carboxylate], the IC50 on BRD4 BD1 was 1000 to 10000 nM; with MV4-11 cells (MV4-11, 72 h), greater than 500 nM; at BRD4 BD2 it was greater than 500 nM.
Consider `COC(=O)Nc1cc2c(cc1-c1cnn(C3CC3)c1)N(C(=O)OC(C)C)C[C@H](C)N2C(C)=O` [Example I-204, Isopropyl (S)-4-acetyl-7-(1-cyclopropyl-1H-pyrazol-4-yl)-6-((methoxycarbonyl)amino)-3-methyl-3,4-dihydroquinoxaline-1(2H)-carboxylate], for which the IC50 at BRD4 BD1 is 100 to 1000 nM; in the assay on MV4-11 cells (MV4-11, 72 h), greater than 500 nM; on BRD4 BD2, 50 to 500 nM.
Regarding `CC(=O)Nc1cc2c(cc1-c1cnn(CC(C)(C)O)c1)N(C(=O)OC(C)C)C[C@H](C)N2C(C)=O` [Example I-205, Isopropyl (S)-6-acetamido-4-acetyl-7-(1-(2-hydroxy-2-methylpropyl)-1H-pyrazol-4-yl)-3-methyl-3,4-dihydroquinoxaline-1(2H)-carboxylate], the IC50 at BRD4 BD1 was 100 to 1000 nM; in the assay on MV4-11 cells (MV4-11, 72 h) it was greater than 500 nM; at BRD4 BD2 it was 50 to 500 nM.
For `CC(=O)N1c2cc(N)c(-c3cnn(C4CC4)c3)cc2N(C(=O)OC(C)C)C[C@@H]1C` [Example I-206, Isopropyl (S)-4-acetyl-6-amino-7-(1-cyclopropyl-1H-pyrazol-4-yl)-3-methyl-3,4-dihydroquinoxaline-1(2H)-carboxylate] the same measures were 100 to 1000 nM, 100 to 500 nM and less than 50 nM.
Taken in the same sequence, the figures for `CC(=O)N1c2cc(F)c(-c3cnn(C4CC4)c3)cc2N(C(=O)OC(C)C)C[C@@H]1C` [Example I-207, Isopropyl (S)-4-acetyl-7-(1-cyclopropyl-1H-pyrazol-4-yl)-6-fluoro-3-methyl-3,4-dihydroquinoxaline-1(2H)-carboxylate] were 100 to 1000 nM, greater than 500 nM and 50 to 500 nM.
Consider `CC(=O)N1c2cc(Cl)c(-c3cnn(C4CC4)c3)cc2N(C(=O)OC(C)C)C[C@@H]1C` [Example I-208, Isopropyl (S)-4-acetyl-6-chloro-7-(1-cyclopropyl-1H-pyrazol-4-yl)-3-methyl-3,4-dihydroquinoxaline-1 (2H)-carboxylate], for which the IC50 at BRD4 BD1 was 1000 to 10000 nM; in the assay with MV4-11 cells (MV4-11, 72 h) it was greater than 500 nM; at BRD4 BD2 it was greater than 500 nM.
Take `CC(=O)N1c2cc(Br)c(-c3cnn(C4CC4)c3)cc2N(C(=O)OC(C)C)C[C@@H]1C` [Example I-209, Isopropyl (S)-4-acetyl-6-bromo-7-(1-cyclopropyl-1H-pyrazol-4-yl)-3-methyl-3,4-dihydroquinoxaline-1(2H)-carboxylate]: the IC50 is 1000 to 10000 nM on BRD4 BD1; greater than 500 nM in the assay on MV4-11 cells (MV4-11, 72 h); greater than 500 nM at BRD4 BD2.
In the case of `COc1cc2c(cc1-c1cnn(C3CC3)c1)N(C(=O)OC(C)C)C[C@H](C)N2C(C)=O` [Example I-210, Isopropyl (S)-4-acetyl-7-(1-cyclopropyl-1H-pyrazol-4-yl)-6-methoxy-3-methyl-3,4-dihydroquinoxaline-1(2H)-carboxylate], the IC50 on BRD4 BD1 is 1000 to 10000 nM; with MV4-11 cells (MV4-11, 72 h), greater than 500 nM; at BRD4 BD2, greater than 500 nM.
In the case of `CC(=O)N1c2cc(C#N)c(-c3cnn(C4CC4)c3)cc2N(C(=O)OC(C)C)C[C@@H]1C` [Example I-211, Isopropyl (S)-4-acetyl-6-cyano-7-(1-cyclopropyl-1H-pyrazol-4-yl)-3-methyl-3,4-dihydroquinoxaline-1(2H)-carboxylate], the IC50 was 100 to 1000 nM on BRD4 BD1; greater than 500 nM in the assay with MV4-11 cells (MV4-11, 72 h); greater than 500 nM at BRD4 BD2.
